Reference: publication PMC8846360, “Structural Optimization and Improving Antitumor Potential of Moreollic Acid from Gamboge” (Molecules, 2022)
Like-named read-outs stand apart in the source and are kept apart here.

Assays:
[1] = tested on: human colon cancer cells (HCT-116); experiment: CCK-8 cell proliferation assay, HCT-116; format: cell-based; conditions: for inhibition at 5 µM: read-out: Inhibition rates (%) HCT-116; for IC50: read-out: IC50 ± SD HCT116
Experimental: (§1) Initially, the target compounds were evaluated for antiproliferative activities against human non-small-cell lung cancer cells (A549), human breast cancer cells (MDA-MB-231), human esophageal cancer cells (KYSE30), and human colon cancer cells (HCT-116) at 5 μM. All of them were tested by the CCK-8 assay using 5-Fu as the positive control.
(§2) To further assess the antitumor activities of synthesized compounds against human colon cancer cells, the effects of each synthesized compound on the viability of two additional human colon cancer cells (SW620, DLD1) were evaluated, and normal human colonic epithelial cells (NCM460) were used as a control. It is obvious that all the synthesized compounds display potential antitumor activities against HCT116, DLD1, and SW620 cells. […] In addition, for SW620, the activities of most optimized compounds were slightly stronger than that of 5-Fu.
(§3) HCT116, SW620, and DLD1 were purchased from American Type Culture Collection (ATCC). SW620 and DLD1 were cultured in Dulbecco’s Modified Eagles medium (Thermo), and HCT116 was cultured in McCoy’s 5A medium (Thermo). All media were supplemented with 10% fetal bovine serum (Thermo) and 1% penicillin/streptomycin. All the cells were passaged at approximately 80% confluency. Cells were tested for mycoplasma every two months, and only mycoplasma-negative cells were used
(§4) To investigate the effects of compounds on tumor cells’ proliferation, the cell proliferation assay was performed using the Cell Counting Kit-8 (#40203ES60, Yeasen, Shanghai, China). In brief, cells were seeded in a 96-well plate at 3 × 10^3 cells per well and cultured overnight. Then, the medium was replaced with fresh DMEM medium containing various concentrations of compounds or vehicle. After 48 h of incubation, the medium was exchanged with 100 μL of FBS-free DMEM medium supplemented with 10 μL of CCK8 added to each well and incubated at 37 °C for another 2 h. Absorbance at 450 nm was measured with a microplate reader (Thermo). The experiments were performed in triplicate. The mean ± SD values presented in the figures were calculated from three independent experiments. Comparisons between groups were evaluated using GraphPad Prism version 7.0 software. p < 0.05 was considered statistically significant.

[2] = tested on: normal human colonic epithelial cells (NCM460); experiment: CCK-8 cell proliferation assay, NCM460; format: cell-based; conditions: read-out: IC50 ± SD NCM460
Experimental: as §2, §4

[3] = tested on: human colon cancer cells (DLD1); experiment: CCK-8 cell proliferation assay, DLD1; format: cell-based; conditions: read-out: IC50 ± SD DLD1
Experimental: as §2, §3, §4

[4] = tested on: human colon cancer cells (SW620); experiment: CCK-8 cell proliferation assay, SW620; format: cell-based; conditions: read-out: IC50 ± SD SW620
Experimental: as §2, §3, §4

[5] = tested on: human non-small-cell lung cancer cells (A549); experiment: CCK-8 cell proliferation assay, A549; format: cell-based; conditions: 48 h, read-out: Inhibition rates (%) A549
Experimental: as §1, §4

[6] = tested on: human esophageal cancer cells (KYSE30); experiment: CCK-8 cell proliferation assay, KYSE30; format: cell-based; conditions: KYSE-30, 48 h, read-out: Inhibition rates (%) KYSE30
Experimental: as §1, §4

[7] = tested on: human breast cancer cells (MDA-MB-231); experiment: CCK-8 cell proliferation assay, MDA-MB-231; format: cell-based; conditions: 48 h, read-out: Inhibition rates (%) MDA-MB-231
Experimental: as §1, §4

[8] = tested on: CyclinD1, CDK6, CDK4, p-Rb in NCM460 cells; experiment: Immunoblot of cell-cycle regulatory proteins, NCM460; format: cell-based, human; conditions: indicated concentrations, 48 h
Experimental: (§5) Additionally, flow cytometric analyses were performed to determine cell-cycle distribution, where 400 ng/mL of nocodazole was used to synchronize cells in G2/M phase.
(§6) When 80% confluency was reached, cells were seeded into a 6-well plate at 3 × 10^6 cells per well and allowed to attach overnight. Then, the cells were treated with different concentrations of TH12-10 or vehicle for 48 h. Cells were lysed in RIPA buffer (#89900, Thermo, Waltham, MA, USA) supplemented with protease inhibitor cocktail (#B14002, Bimake, Houston, TX, USA) on ice for 30 min and centrifuged at 12,000 rpm for 10 min at 4 °C. Protein concentration was determined by the BCA kit and equal amounts of lysates were separated by SDS-polyacrylamide gels, and transferred to nitrocellulose membranes (#HATF00010, Millipore, Burlington, MA, USA). Then, the membranes were blocked with 5% milk in TBST for 1 h and probed with the indicated antibodies. […]
Figure 4 The contribution of TH12-10 to the cell cycle. […] (D) Quantitative analysis of NCM460 cells in G1 phase as described in (C). […]

[9] = tested on: DLD1 cells; experiment: Flow cytometric cell-cycle distribution, DLD1; format: cell-based, human; conditions: 6 h after nocodazole (400 ng/mL), flow cytometry
Experimental: as §5
Figure 3 TH12-10 blocks S phase entry. (A) Immunoblot analysis of Cyclin D1, CDK4, CDK6, and p-Rb in SW620 and DLD1 cells treated with indicated concentrations of TH12-10 for 48 h. (B) Densitometry analysis of indicated proteins as described in (A) was performed using Image J software. […] (D) Quantitative analysis of DLD1 cells in G1 phase as described in (C). All data are presented as means ± SD of three independent experiments. * p < 0.05, ** p < 0.01, *** p < 0.001. N.S., not significant. Differences were tested using one-way ANOVA (B) or the unpaired t-test with Welch’s correction (D).

[10] = tested on: CyclinD1, CDK6, CDK4, p-Rb in SW620 cells; experiment: Immunoblot of cell-cycle regulatory proteins, SW620; format: cell-based, human; conditions: indicated concentrations, 48 h
Experimental: as §5, §6
(§7) Figure 3 TH12-10 blocks S phase entry. […] (D) Quantitative analysis of DLD1 cells in G1 phase as described in (C). […]

[11] = tested on: CyclinD1, CDK6, CDK4, p-Rb in DLD1 cells; experiment: Immunoblot of cell-cycle regulatory proteins, DLD1; format: cell-based, human; conditions: indicated concentrations, 48 h
Experimental: as §5, §6, §7

[12] = NCM460, CCK-8, 48 h, normal colonic epithelial cells

IC50 ([1]; HCT-116, CCK-8, 48 h) [nM] | IC50 ([3]; DLD-1, CCK-8, 48 h) [nM] | IC50 ([4]; SW-620, CCK-8, 48 h) [nM] | Compound | inhibition at 5 µM ([1]; HCT-116, 5 μM, CCK-8, 48 h) [%] | IC50 [2, 12] [nM] | inhibition at 5 µM [5] [%] | inhibition at 5 µM [6] [%] | inhibition at 5 µM [7] [%] | expression of CyclinD1, CDK6, CDK4 and p-Rb [8] | percentage of cells in the G1 phase vs blank control [9] | expression of CyclinD1, CDK6, CDK4 and p-Rb [10] | expression of CyclinD1, CDK6, CDK4 and p-Rb [11] | IC50 ([1]; HCT-116, 48 h) [nM] | inhibition at 5 µM ([1]; HCT-116, 48 h) [%] | IC50 ([2]; NCM460, 48 h) [nM] | IC50 ([3]; DLD-1, 48 h) [nM] | IC50 ([4]; SW-620, 48 h) [nM]
1680 ± 260 | 1670 ± 700 | 1590 ± 440 | CONC(=O)C(C)=CCC12OC(C)(C)C3CC(C1=O)C(OC)C1C(=O)c4c(O)c5c(c(CC=C(C)C)c4OC132)OC(C)(C)C=C5 (stereo not drawn) [TH12-9] | 83.9 ± 2.07 | 1630 ± 20 | 8.54 ± 1.11 | 4.49 ± 1.05 | -1.76 ± 0.43 |  |  |  |  |  |  |  |  | 
7620 ± 930 | 7890 ± 120 | 7260 ± 870 | COC1C2CC3C(C)(C)OC(CC=C(C)C(=O)N4CCSCC4)(C2=O)C32Oc3c(CC=C(C)C)c4c(c(O)c3C(=O)C12)C=CC(C)(C)O4 (stereo not drawn) [TH12-4] | 16.3 ± 4.56 | 19900 ± 840 | 11.1 ± 5.41 | 6.98 ± 1.99 | 3.13 ± 1.16 |  |  |  |  |  |  |  |  | 
830 ± 100 | 1100 ± 190 | 790 ± 120 | COC1C2CC3C(C)(C)OC(CC=C(C)C(=O)N4CCS(=O)(=O)CC4)(C2=O)C32Oc3c(CC=C(C)C)c4c(c(O)c3C(=O)C12)C=CC(C)(C)O4 (stereo not drawn) [TH12-10] | 88.1 ± 2.78 | 4080 ± 110 | 6.85 ± 2.16 | 3.65 ± 2.44 | 8.09 ± 0.28 | no significant change | significantly higher | significantly decreased | significantly decreased |  |  |  |  | 
1000 ± 130 | 1050 ± 230 | 970 ± 100 | COC1C2CC3C(C)(C)OC(CC=C(C)C(=O)N4CCC(N5CCCC5)CC4)(C2=O)C32Oc3c(CC=C(C)C)c4c(c(O)c3C(=O)C12)C=CC(C)(C)O4 (stereo not drawn) [TH12-8] | 87.6 ± 2.76 | 2290 ± 10 | 4.8 ± 0.63 | 4.04 ± 1.5 | 4.32 ± 1.96 |  |  |  |  |  |  |  |  | 
1190 ± 250 | 1390 ± 190 | 1150 ± 130 | COC1C2CC3C(C)(C)OC(CC=C(C)C(=O)N4CCCCC4)(C2=O)C32Oc3c(CC=C(C)C)c4c(c(O)c3C(=O)C12)C=CC(C)(C)O4 (stereo not drawn) [TH12-2] | 86.1 ± 2.83 | 4730 ± 40 | 2.51 ± 4.32 | 9.08 ± 2.44 | 0.14 ± 3.51 |  |  |  |  |  |  |  |  | 
620 ± 20 | 7890 ± 750 | 2680 ± 10 | O=c1[nH]cc(F)c(=O)[nH]1 [5-Fu, 5-fluorouracil, reference compound] | 74.5 ± 1.1 | 13600 ± 590 | 21.1 ± 1.79 | 28 ± 2.27 | 26.6 ± 2.51 |  |  |  |  |  |  |  |  | 
 |  |  | COC1C2CC3C(C)(C)OC(CC=C(C)C(=O)O)(C2=O)C32Oc3c(CC=C(C)C)c4c(c(O)c3C(=O)C12)C=CC(C)(C)O4 (stereo not drawn) [TH12-1, Moreollic acid] |  |  | 18.38 ± 0.02 | 20.76 ± 0.04 | -4.9 ± 0.04 |  |  |  |  | 1710 ± 330 | 83.9 ± 1.1 | 3160 ± 320 | 1440 ± 290 | 1490 ± 370
1520 ± 140 | 1450 ± 250 | 1310 ± 240 | COC1C2CC3C(C)(C)OC(CC=C(C)C(=O)N4CCC(c5ccccc5)CC4)(C2=O)C32Oc3c(CC=C(C)C)c4c(c(O)c3C(=O)C12)C=CC(C)(C)O4 (stereo not drawn) [TH12-7] | 87.1 ± 2.37 | 2970 ± 80 | 4.59 ± 1.27 | -2.71 ± 0.83 | 2.99 ± 0.16 |  |  |  |  |  |  |  |  | 
 |  |  | COC1C2CC3C(C)(C)OC(CC=C(C)C(=O)N4CCC(C)CC4)(C2=O)C32Oc3c(CC=C(C)C)c4c(c(O)c3C(=O)C12)C=CC(C)(C)O4 (stereo not drawn) [TH12-5] |  |  | 14.3 ± 2.84 | 5.65 ± 3.77 | 0.69 ± 1.92 |  |  |  |  | 2370 ± 630 | 85.5 ± 1.45 | 5110 ± 210 | 2490 ± 560 | 1970 ± 340
1960 ± 200 | 2310 ± 230 | 1820 ± 330 | COC1C2CC3C(C)(C)OC(CC=C(C)C(=O)N4CCOCC4)(C2=O)C32Oc3c(CC=C(C)C)c4c(c(O)c3C(=O)C12)C=CC(C)(C)O4 (stereo not drawn) [TH12-3] | 87.4 ± 2.49 | 4720 ± 30 | 11.6 ± 4.25 | 10.6 ± 2.66 | 1.71 ± 1.66 |  |  |  |  |  |  |  |  | 
